Data: US9138423B2, “Use of inhibitors of porphobilinogen deaminase in the treatment of congenital erythropoietic porphyria” (Asociación Centro de Investigación Cooperativa en …, priority 2010, dated 2015)

Legend:
[1] = target: porphobilinogen deaminase (PBGD) (Homo sapiens (Human), UniProt P08397); assay: Enzymatic assay of porphobilinogen deaminase catalytic activity (Lineweaver-Burk, inhibition constants); assay type: biochemical; details: for Ki: global data fitting of all values in presence of inhibitor, 37° C., pH 8.0, read-out: Ki (inhibition constant of the catalytic activity of the PBGD)
Sequence of porphobilinogen deaminase (PBGD) (P08397 whole entry): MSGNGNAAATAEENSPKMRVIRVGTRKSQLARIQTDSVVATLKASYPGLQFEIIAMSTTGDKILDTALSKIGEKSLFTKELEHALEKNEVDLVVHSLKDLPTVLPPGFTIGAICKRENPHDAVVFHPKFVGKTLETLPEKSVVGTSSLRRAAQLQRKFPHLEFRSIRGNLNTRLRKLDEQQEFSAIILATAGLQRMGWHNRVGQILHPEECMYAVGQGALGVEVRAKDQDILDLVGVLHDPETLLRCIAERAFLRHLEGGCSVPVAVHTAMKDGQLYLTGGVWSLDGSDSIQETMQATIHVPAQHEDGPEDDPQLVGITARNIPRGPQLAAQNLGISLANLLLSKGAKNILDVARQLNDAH
Procedure: Obtaining and purifying the enzyme: The enzyme is obtained and purified by following the method published by Millet O et al. (2009) Biochemistry 48: 454-461.
Enzymatic assay: The assay is based on the method described by Jordan (Shoolingin-Jordan P M et al. (1997). Methods in enzymology 281: 327-336) with some modifications. 10 μL of porphobilinogen deaminase (PBGD) at a concentration of 150 μM in 48 μL of buffer (20 mM Tris-HCl pH 8.0, NaCl 150 mM) is preheated at 37° C. for two minutes. If the assay is performed in the presence of an inhibitor, the latter is added in dissolved form into the buffer. 25 μL of the porphobilinogen (PBG) substrate are then added, diluted to different concentrations (0.15, 0.3, 0.45, 0.6, 0.9, 1.2, 1.5, 1.8, 2.1, 2.4, 2.7, 3, 3.3, 3.9 mM) in the aforementioned buffer and are incubated at 37° C. for five minutes. A control assay containing a buffer without substrate (PBG) in the same proportions is performed at the same time. The enzymatic reaction is stopped by means of freezing the samples in liquid nitrogen. Then the mixture is incubated again with 6 μL of 25 mM uroporphyrinogen 3 synthase (U3S) at 37° C. for 30 minutes to transform the pre-uroporphyrinogen into uroporphyrinogen III. The reaction is again stopped by means of freezing in liquid nitrogen. Then the formed […] uroporphyrinogens are oxidized to uroporphyrins by means of adding 25 μL of I2/KI solution and incubation for 10 minutes in ice and darkness. The iodine excess is then bleached by adding 25 μL of saturated sodium metabisulfite solution. […] Finally, different dilutions of the supernatant in 0.1 M HCl are prepared to measure the change of absorbance at 405 nm with respect to the control sample.
Calculation of inhibition constants: Inhibition constants have been calculated from the global data fitting of all values in presence of inhibitor according to the methodologies disclosed in the prior art (Structure and mechanism in protein Science, Alan Fersht, 1999, Ed. Freeman and Co. (New York), Pag. 105-115).

[2] = target: porphobilinogen deaminase of Arabidopsis thaliana (Arabidopsis thaliana (Mouse-ear cress), UniProt Q43316); details: Arabidopsis thaliana enzyme; non-specific chemical modification; cited from earlier work
Sequence of porphobilinogen deaminase of Arabidopsis thaliana (Q43316 63-382): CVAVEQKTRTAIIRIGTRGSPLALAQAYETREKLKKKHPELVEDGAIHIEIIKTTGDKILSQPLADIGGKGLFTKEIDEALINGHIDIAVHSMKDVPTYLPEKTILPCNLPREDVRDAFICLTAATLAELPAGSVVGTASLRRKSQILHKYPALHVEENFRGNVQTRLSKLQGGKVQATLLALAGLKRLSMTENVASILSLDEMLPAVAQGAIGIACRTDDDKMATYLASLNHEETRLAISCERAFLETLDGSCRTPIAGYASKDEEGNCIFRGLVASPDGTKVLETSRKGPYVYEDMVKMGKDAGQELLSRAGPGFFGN

[3] = target: Escherichia coli porphobilinogen deaminase (Escherichia coli (strain K12), UniProt P06983); details: Escherichia coli enzyme; cited from earlier work
Sequence of Escherichia coli porphobilinogen deaminase (P06983 whole entry): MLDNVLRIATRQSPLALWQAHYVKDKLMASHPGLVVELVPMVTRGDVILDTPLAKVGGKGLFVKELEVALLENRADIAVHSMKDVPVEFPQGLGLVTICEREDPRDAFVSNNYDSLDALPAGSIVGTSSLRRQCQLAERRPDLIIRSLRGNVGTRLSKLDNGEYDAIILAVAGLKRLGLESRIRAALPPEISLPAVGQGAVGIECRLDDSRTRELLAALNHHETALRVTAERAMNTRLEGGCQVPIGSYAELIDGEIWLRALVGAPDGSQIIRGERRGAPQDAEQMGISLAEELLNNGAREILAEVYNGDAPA

| Structure (SMILES) | Ki [1] [µM] | effect on catalytic activity of porphobilinogen deaminase [2] | further results |
| --- | --- | --- | --- |
| Cc1c[nH]c(C)c1 [2,4-CH3-PYR, 2,4-dimethyl-1H-pyrrole] | 6 |  |  |
| Cc1ccc(C)[nH]1 [2,5-CH3-PYR, 2,5-dimethyl-1H-pyrrole] | 3 |  |  |
| OCCS [2-mercaptoethanol] |  | significantly alter the catalytic activity |  |
| N[C@H](Cc1c[nH]c2ccccc12)C(=O)O [DTRP, 2R-amino-3-(1H-indol-3-yl) propanoic acid] |  |  | type of inhibition of the catalytic activity of PBGD (Lineweaver-Burk plot) ([1]; increasing amounts of inhibitor, change in slope with same intercept): competitive inhibition |
| CCN1C(=O)C=CC1=O [N-ethylmaleimide] |  | low inhibition | effect on catalytic activity of porphobilinogen deaminase [3]: strongly deactivates |
